Laboratory results published in ChEMBL document CHEMBL1201862, “PubChem BioAssay data set” (2004).
Active and inactive are the calls of the source.

Columns and labels:
[1] = target: T1, Short transient receptor potential channel 4 (Mus musculus, UniProt Q9QUQ5); assay: mouse TRPC4 channel inhibitors, dose response, cell-based, HEK293 TRPC4/mu-opioid, Fluo-4 calcium (AID 434942); format: functional;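 further: potency of inhibitors blocking the TRPC4 calcium response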
T1 sequence (Q9QUQ5 whole entry): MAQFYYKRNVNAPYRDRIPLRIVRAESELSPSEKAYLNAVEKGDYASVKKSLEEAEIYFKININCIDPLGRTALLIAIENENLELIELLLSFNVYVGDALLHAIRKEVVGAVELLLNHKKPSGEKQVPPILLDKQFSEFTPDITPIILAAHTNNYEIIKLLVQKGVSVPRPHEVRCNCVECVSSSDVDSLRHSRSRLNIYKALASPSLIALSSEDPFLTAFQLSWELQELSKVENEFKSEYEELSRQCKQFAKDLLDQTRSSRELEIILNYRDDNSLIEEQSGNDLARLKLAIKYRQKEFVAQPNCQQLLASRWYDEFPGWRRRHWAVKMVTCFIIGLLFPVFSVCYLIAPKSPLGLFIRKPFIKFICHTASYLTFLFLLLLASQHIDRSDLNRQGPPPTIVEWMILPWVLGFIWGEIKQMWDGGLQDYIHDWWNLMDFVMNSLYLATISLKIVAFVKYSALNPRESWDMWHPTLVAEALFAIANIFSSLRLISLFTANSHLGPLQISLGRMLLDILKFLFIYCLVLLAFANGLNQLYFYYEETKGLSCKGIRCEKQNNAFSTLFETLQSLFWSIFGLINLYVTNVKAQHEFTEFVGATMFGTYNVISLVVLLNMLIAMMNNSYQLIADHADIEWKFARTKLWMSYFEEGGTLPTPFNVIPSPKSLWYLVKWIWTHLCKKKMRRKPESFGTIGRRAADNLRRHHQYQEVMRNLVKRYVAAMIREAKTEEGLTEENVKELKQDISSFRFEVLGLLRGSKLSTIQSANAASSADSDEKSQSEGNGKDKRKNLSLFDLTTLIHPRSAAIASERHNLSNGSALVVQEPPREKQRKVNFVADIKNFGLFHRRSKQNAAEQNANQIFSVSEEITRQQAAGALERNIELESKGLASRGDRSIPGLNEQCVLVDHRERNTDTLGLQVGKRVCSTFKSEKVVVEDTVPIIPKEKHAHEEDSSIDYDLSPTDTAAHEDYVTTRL

[2] = A cytotoxicity screen of small molecule inhibitors of the PhoP region in Salmonella typhi identified in the primary screen. [Related pubchem assays: 1850, 1864, 1985 ]; format: functional
[3] = microbe, parasite or virus in culture; format: functional; details: Mycobacterium tuberculosis
[4] = cells
[5] = target: T2, Leucine aminopeptidase (Plasmodium falciparum 3D7, UniProt Q8IL11); assay: P. falciparum M17LAP inhibitors, primary screen, biochemical, fluorogenic H-Leu-NHMec substrate, 1536-well (AID 1619); format: functional
T2 sequence (Q8IL11 whole entry): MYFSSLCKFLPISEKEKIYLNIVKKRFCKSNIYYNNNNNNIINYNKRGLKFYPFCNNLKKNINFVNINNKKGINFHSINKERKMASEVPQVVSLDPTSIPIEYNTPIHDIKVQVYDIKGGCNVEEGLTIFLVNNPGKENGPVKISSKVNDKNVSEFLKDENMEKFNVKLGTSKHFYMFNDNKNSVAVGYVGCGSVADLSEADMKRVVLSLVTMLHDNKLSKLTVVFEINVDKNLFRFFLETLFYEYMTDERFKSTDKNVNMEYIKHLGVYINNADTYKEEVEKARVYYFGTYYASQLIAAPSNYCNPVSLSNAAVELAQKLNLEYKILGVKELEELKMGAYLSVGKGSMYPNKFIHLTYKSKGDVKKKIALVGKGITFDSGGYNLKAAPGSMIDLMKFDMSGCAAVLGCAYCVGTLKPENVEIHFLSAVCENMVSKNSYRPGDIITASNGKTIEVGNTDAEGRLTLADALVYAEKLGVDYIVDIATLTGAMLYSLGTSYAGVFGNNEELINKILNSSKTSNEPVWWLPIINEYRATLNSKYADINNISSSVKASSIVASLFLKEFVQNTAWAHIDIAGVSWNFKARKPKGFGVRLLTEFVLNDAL

[6] = HEp-2 cell cytotoxicity, dose response, cytotoxicity control for RSV inhibitor project, HTS (AID 2410); format: functional; details: human respiratory syncytial virus
[7] = target: T3, Sentrin-specific protease 8 (Homo sapiens, UniProt Q96LD8); format: functional;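 further: luminescence read-out of SENP8 inhibition, dose-response confirmation following an ultra-high-throughput screen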
T3 sequence (Q96LD8 whole entry): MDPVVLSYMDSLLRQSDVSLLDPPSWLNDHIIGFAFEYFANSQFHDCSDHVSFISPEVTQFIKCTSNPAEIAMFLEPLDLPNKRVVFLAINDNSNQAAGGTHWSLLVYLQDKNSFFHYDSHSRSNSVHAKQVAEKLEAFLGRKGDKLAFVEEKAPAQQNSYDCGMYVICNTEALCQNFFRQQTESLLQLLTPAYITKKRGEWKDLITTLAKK

[8] = target: T4, Sentrin-specific protease 6 (Homo sapiens, UniProt Q9GZR1); format: functional;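 further: Luminescence-based dose-response confirmatory assay of SENP6 inhibition, following up an ultra-high-throughput screen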
T4 sequence (Q9GZR1 whole entry): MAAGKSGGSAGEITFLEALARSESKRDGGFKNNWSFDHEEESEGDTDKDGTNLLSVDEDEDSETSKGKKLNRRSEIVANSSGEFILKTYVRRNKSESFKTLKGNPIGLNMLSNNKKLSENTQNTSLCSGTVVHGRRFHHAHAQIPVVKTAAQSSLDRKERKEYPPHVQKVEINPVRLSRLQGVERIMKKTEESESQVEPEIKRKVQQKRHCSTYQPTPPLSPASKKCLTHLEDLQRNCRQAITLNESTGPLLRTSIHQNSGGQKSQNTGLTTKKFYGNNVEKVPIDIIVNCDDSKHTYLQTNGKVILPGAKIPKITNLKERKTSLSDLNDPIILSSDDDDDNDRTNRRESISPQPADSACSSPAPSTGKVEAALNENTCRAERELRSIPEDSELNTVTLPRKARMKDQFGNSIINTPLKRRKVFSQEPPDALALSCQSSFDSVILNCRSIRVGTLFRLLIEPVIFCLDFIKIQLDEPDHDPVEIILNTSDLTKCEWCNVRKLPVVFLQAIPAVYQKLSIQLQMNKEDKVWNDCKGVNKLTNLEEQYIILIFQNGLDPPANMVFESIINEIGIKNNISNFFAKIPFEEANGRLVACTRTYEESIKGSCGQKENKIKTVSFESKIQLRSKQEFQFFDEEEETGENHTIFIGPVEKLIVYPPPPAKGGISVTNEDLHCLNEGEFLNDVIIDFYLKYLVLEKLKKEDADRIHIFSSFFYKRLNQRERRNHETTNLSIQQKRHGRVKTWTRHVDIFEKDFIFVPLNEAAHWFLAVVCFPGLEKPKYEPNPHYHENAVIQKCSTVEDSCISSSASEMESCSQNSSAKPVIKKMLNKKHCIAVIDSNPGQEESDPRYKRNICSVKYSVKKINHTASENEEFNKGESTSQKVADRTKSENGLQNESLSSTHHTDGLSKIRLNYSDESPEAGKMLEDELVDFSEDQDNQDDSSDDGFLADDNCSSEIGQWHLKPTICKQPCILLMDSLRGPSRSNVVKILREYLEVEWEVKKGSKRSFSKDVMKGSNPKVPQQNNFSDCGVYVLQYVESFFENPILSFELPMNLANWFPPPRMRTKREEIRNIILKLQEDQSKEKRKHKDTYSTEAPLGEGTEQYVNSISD

[9] = target: T5, Caspase-3 (Homo sapiens, UniProt P42574); format: functional;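 further: Dose-response selectivity test against caspase-3 for candidate inhibitors of sentrin-specific proteases (SENPs)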
T5 sequence (P42574 whole entry): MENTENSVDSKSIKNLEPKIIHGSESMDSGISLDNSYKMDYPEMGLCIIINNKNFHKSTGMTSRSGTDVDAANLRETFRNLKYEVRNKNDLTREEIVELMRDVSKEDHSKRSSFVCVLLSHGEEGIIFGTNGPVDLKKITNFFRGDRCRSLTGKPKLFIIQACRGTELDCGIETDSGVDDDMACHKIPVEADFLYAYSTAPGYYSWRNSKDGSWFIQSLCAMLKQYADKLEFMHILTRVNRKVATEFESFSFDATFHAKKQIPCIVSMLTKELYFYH

[10] = target: T6, Sentrin-specific protease 7 (Homo sapiens, UniProt Q9BQF6); format: functional;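 further: Luminescence-based dose-response confirmation of ultra-high-throughput screening hits, measuring inhibition of SENP7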
T6 sequence (Q9BQF6 whole entry): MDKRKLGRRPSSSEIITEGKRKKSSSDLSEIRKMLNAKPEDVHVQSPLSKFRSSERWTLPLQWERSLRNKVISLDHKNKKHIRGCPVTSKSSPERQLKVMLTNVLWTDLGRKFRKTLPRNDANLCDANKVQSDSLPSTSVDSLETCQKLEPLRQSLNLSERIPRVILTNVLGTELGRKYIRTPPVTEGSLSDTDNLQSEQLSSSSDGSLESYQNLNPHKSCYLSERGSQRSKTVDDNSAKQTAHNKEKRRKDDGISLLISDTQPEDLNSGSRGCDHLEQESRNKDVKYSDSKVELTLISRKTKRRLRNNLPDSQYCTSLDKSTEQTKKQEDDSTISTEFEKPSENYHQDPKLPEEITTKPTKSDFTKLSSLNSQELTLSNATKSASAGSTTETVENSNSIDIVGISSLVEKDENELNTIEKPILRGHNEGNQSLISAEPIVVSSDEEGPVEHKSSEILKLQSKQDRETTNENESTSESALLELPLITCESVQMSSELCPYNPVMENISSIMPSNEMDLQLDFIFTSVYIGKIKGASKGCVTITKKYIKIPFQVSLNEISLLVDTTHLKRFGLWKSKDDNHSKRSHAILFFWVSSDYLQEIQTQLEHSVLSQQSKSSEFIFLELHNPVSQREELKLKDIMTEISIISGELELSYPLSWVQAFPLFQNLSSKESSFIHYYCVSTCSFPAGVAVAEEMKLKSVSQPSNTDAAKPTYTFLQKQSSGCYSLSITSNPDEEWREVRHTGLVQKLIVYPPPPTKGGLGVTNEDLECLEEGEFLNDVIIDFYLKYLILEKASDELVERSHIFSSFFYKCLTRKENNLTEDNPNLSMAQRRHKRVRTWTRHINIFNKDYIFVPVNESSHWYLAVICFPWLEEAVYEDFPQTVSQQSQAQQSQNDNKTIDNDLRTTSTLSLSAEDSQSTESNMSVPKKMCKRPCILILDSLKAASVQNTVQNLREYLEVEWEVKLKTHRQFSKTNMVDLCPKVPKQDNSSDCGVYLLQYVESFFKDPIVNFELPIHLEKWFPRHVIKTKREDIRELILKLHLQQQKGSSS

[11] = target: Nonstructural protein 1 (Influenza A virus, UniProt Q194T2); format: functional, Influenza A virus (A/California/07/2009(H1N1))
Sequence of Nonstructural protein 1 (Q194T2 whole entry): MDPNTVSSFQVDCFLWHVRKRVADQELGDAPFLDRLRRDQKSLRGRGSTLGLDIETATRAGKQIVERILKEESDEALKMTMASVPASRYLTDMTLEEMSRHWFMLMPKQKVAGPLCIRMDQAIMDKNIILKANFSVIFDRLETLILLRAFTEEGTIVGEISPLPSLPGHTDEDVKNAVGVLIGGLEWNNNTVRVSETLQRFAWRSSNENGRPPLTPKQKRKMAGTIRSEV

O=C(c1ccc(Cl)c(Cl)c1)N(Cc1ccco1)c1ccc(O)cc1
EC50 [1]: 8.41 µM (active)

COc1ccc(Cn2nnnc2C(c2cc3ccc(OC)cc3nc2O)N2CCC(C)CC2)cc1 (stereo not given)
EC50 [2]: > 50 µM (active)

Cc1ccc(-c2nc3c(c(=O)c4ccccc4n3C)c(=O)n2Cc2ccco2)cc1
CC50 [3]: 38.3 µM (active) | IC50 [4]: 5.74 µM (active)

O=C(O)Cn1cc(/C=C2/NC(=O)N(c3ccc(Cl)cc3)C2=O)c2ccccc21
IC50 [5]: 11.9 µM (active)

O=S(=O)(Nc1cccc2nsnc12)c1ccccc1
IC50 [5]: 15.5 µM (active)

OCC1(CCc2ccccc2)CCN(Cc2cc(Cl)ccc2O)CC1
EC50 [1]: 9.44 µM (active)

Fc1ccc(CN2CCC(Cc3ccccc3)CC2)cc1F
EC50 [1]: 4.73 µM (active)

CC(C)(C)c1cc(NC(=O)c2cc(F)c(F)c(F)c2F)no1
IC50 [4]: 41.2 µM (active)

O=C(CSc1nc[nH]n1)Nc1ncc(C(F)(F)F)cc1Cl
IC50 [5]: 19.6 µM (active)

Cc1cc(C)nc(N=C(N)NC2CCCCC2)n1
EC50 [1]: 4.22 µM (active)

Cc1ccccc1-n1c(C)nnc1SCc1cc(=O)oc2ccc3ccccc3c12
CC50 [6]: > 50 µM (active) | IC50 [4]: > 50 µM (active)

COC(=O)c1cc(NC(=O)C2CC=CCC2C(=O)O)cc(C(=O)OC)c1 (stereo not given)
IC50 [5]: 28.6 µM (active)

N#Cc1nc(COc2ccc(Br)cc2)oc1NCCCn1ccnc1
EC50 [2]: > 50 µM (active)

CN(C)C(=O)COC(=O)c1ccccc1Nc1ccc(SC(F)F)cc1
IC50 [7]: 17.8 µM (active) | CC50 [6]: 8.89 µM (active) | IC50 [8]: 12.8 µM (active) | IC50 [9]: 28.2 µM (active) | IC50 [10]: 4.9 µM (active) | IC50 [4]: 4.77 µM (active)

CSC1=NC2(C)CCCCC2C12C=CC(=O)C=C2 (stereo not given)
EC50 [2]: > 50 µM (active)

O=C1NCCCC1C(=O)N/N=C/c1cc([N+](=O)[O-])ccc1O (stereo not given)
EC50 [2]: > 50 µM (active) | IC50 [11]: 16.8 µM (active)

Cc1cc(Cl)ccc1OCC(=O)N/N=C/c1ccncc1
EC50 [2]: > 50 µM (active)
